Results on six molecules are retold here after ChEMBL document CHEMBL3044783, “Effects of pyrrolizidine alkaloids on the performance of plant-parasitic and free-living nematodes” (Pest Manag Sci, 2009).

Data set [1] deals with Heterodera schachtii. Nature of the data set: Nematicidal activity against juvenile stage of Heterodera schachtii assessed as inhibition of mobility incubated for 168 hr followed by compound wash out measured after 24 hr. Format: functional.
Data set [2] concerns Meloidogyne incognita. Put plainly: Nematicidal activity against juvenile stage of Meloidogyne incognita (root-knot nematode) assessed as inhibition of mobility incubated for 168 hr followed by compound wash out measured after 24 hr. It is filed as functional.
In data set [3] the test system is Meloidogyne incognita. Put plainly: Nematicidal activity against juvenile stage of Meloidogyne incognita (root-knot nematode) assessed as inhibition of mobility after 168 hr. Format: functional.
For data set [4], the system named is Heterodera schachtii. Nature of the data set: Nematicidal activity against juvenile stage of Heterodera schachtii assessed as inhibition of mobility after 168 hr. Format: functional.
Data set [5] concerns Meloidogyne incognita. Nature of the data set: Nematicidal activity against juvenile stage of Meloidogyne incognita (root-knot nematode) assessed as inhibition of mobility after 20 hr. It is filed as functional.
Data set [6] relates to Heterodera schachtii. Nature of the data set: Nematicidal activity against juvenile stage of Heterodera schachtii assessed as inhibition of mobility after 20 hr. It is filed as functional.
Data set [7] deals with Pratylenchus penetrans. Nature of the data set: Nematicidal activity against juvenile stage of Pratylenchus penetrans assessed as inhibition of mobility incubated for 168 hr followed by compound wash out measured after 24 hr. It is filed as functional.
Data set [8] concerns Rhabditis sp. Put plainly: Nematicidal activity against juvenile stage of Rhabditis sp. assessed as reduction of fecundity at 0.01 mg/mL after 72 hr by stereomicroscopic analysis relative to untreated control. Format: functional, organism-based.
Data set [9] deals with Rhabditis sp. Put plainly: Nematicidal activity against juvenile stage of Rhabditis sp. assessed as reduction of fecundity at 0.1 mg/mL after 72 hr by stereomicroscopic analysis relative to untreated control. Format: functional, organism-based.
In data set [10] the test system is Rhabditis sp. Nature of the data set: Nematicidal activity against juvenile stage of Rhabditis sp. assessed as reduction of nematode development at 0.01 mg/mL after 72 hr by stereomicroscopic analysis (reference value: 62%). It is filed as functional. Also noted: scale not given: the % may be the effect or the level left.
The subject of data set [11] is Rhabditis sp. Nature of the data set: Nematicidal activity against juvenile stage of Rhabditis sp. assessed as reduction of nematode development at 0.1 mg/mL after 72 hr by stereomicroscopic analysis (reference value: 62%). It is filed as functional. Also noted: scale not given: the % may be the effect or the level left.
In data set [12] the test system is Rhabditis sp. Put plainly: Nematicidal activity against juvenile stage of Rhabditis sp. assessed as reduction of nematode development at 1 mg/mL after 72 hr by stereomicroscopic analysis (reference value: 62%). Format: functional. Also noted: scale not given: the % may be the effect or the level left.
Data set [13] relates to Rhabditis sp. Nature of the data set: Nematicidal activity against juvenile stage of Rhabditis sp. assessed as inhibition of mobility after 168 hr. Format: functional.
Data set [14] has as its system Pratylenchus penetrans. Put plainly: Nematicidal activity against juvenile stage of Pratylenchus penetrans assessed as inhibition of mobility after 168 hr. Format: functional.
For data set [15], the system named is Rhabditis sp. Nature of the data set: Nematicidal activity against juvenile stage of Rhabditis sp. assessed as inhibition of mobility after 20 hr. Format: functional, organism-based.
The subject of data set [16] is Pratylenchus penetrans. Put plainly: Nematicidal activity against juvenile stage of Pratylenchus penetrans assessed as inhibition of mobility after 20 hr. It is filed as functional.
The subject of data set [17] is Rhabditis sp. Put plainly: Repellent activity against juvenile stage of Rhabditis sp. at 0.1 mg/mL after 20 hr by stereomicroscopic analysis (reference value: 48%). Format: functional.
Data set [18] concerns Rhabditis sp. Nature of the data set: Repellent activity against juvenile stage of Rhabditis sp. at 1 mg/mL after 20 hr by stereomicroscopic analysis (reference value: 48%). It is filed as functional.
Data set [19] concerns Meloidogyne incognita. Put plainly: Ovicidal activity against Meloidogyne incognita (root-knot nematode) assessed as egg hatching at 1 mg/mL after 336 hr (reference value: 54%). It is filed as functional.
Data set [20] has as its system Meloidogyne incognita. Put plainly: Ovicidal activity against Meloidogyne incognita (root-knot nematode) assessed as egg hatching at 1 mg/mL after 24 hr (reference value: 3%). Format: functional.
In data set [21] the test system is Meloidogyne incognita. Nature of the data set: Repellent activity against juvenile stage of Meloidogyne incognita (root-knot nematode) at 0.1 mg/mL after 40 hr by stereomicroscopic analysis (reference value: 51%). Format: functional.
In data set [22] the test system is Meloidogyne incognita. Put plainly: Repellent activity against juvenile stage of Meloidogyne incognita (root-knot nematode) at 1 mg/mL after 40 hr by stereomicroscopic analysis (reference value: 51%). Format: functional.
The subject of data set [23] is Meloidogyne incognita. Nature of the data set: Repellent activity against juvenile stage of Meloidogyne incognita (root-knot nematode) at 0.1 mg/mL after 20 hr by stereomicroscopic analysis (reference value: 50%). Format: functional.
Data set [24] deals with Meloidogyne incognita. Put plainly: Repellent activity against juvenile stage of Meloidogyne incognita (root-knot nematode) at 1 mg/mL after 20 hr by stereomicroscopic analysis (reference value: 50%). It is filed as functional.
For data set [25], the system named is Rhabditis sp. Nature of the data set: Repellent activity against juvenile stage of Rhabditis sp. at 0.1 mg/mL after 40 hr by stereomicroscopic analysis (reference value: 50%). It is filed as functional.
The test system of data set [26] is Rhabditis sp. Put plainly: Repellent activity against juvenile stage of Rhabditis sp. at 1 mg/mL after 40 hr by stereomicroscopic analysis (reference value: 50%). Format: functional.
A short description of data set [27]: Stability of the compound assessed as apperance of pyrroles at 5 mg/mL after 24 to 168 hr by thin layer chromatographic analysis under UV light and cold temperature. It is filed as physicochemical.
Data set [28] is described as follows: Stability of the compound assessed as apperance of pyrroles at 5 mg/mL after 24 to 168 hr by thin layer chromatographic analysis under UV light and hot temperature. It is filed as physicochemical.
Data set [29] is described as follows: Stability of the compound assessed as apperance of new pyrrolizidine alkaloids at 5 mg/mL after 24 to 168 hr by thin layer chromatographic analysis under UV light and cold temperature. Format: physicochemical.
Data set [30] in a line: Stability of the compound assessed as conversion of free base to N-oxide at 5 mg/mL after 24 to 168 hr by thin layer chromatographic analysis under UV light and hot temperature. It is filed as physicochemical.
A short description of data set [31]: Stability of the compound assessed as apperance of new pyrrolizidine alkaloids at 5 mg/mL after 24 to 168 hr by thin layer chromatographic analysis under UV light and hot temperature. It is filed as physicochemical.
A short description of data set [32]: Stability of the compound assessed as apperance of pyrroles at 5 mg/mL after 166 hr by thin layer chromatographic analysis under hot temperature. Format: physicochemical.
Data set [33] can be described thus: Stability of the compound assessed as apperance of pyrroles at 5 mg/mL after 24 hr by thin layer chromatographic analysis under hot temperature. Format: physicochemical.
The nature of data set [34]: Stability of the compound assessed as apperance of new pyrrolizidine alkaloids at 5 mg/mL after 24 hr by thin layer chromatographic analysis under hot temperature. It is filed as physicochemical.
Data set [35] in a line: Stability of the compound assessed as apperance of new pyrrolizidine alkaloids at 5 mg/mL after 24 hr by thin layer chromatographic analysis under cold temperature. It is filed as physicochemical.
Data set [36] can be described thus: Stability of the compound assessed as apperance of new pyrrolizidine alkaloids at 5 mg/mL after 166 hr by thin layer chromatographic analysis under hot temperature. Format: physicochemical.
Data set [37] in a line: Stability of the compound assessed as apperance of new pyrrolizidine alkaloids at 5 mg/mL after 166 hr by thin layer chromatographic analysis under cold temperature. It is filed as physicochemical.
Data set [38] can be described thus: Stability of the compound assessed as conversion of free base to N-oxide at 5 mg/mL after 24 to 168 hr by thin layer chromatographic analysis under cold temperature. Format: physicochemical.
Data set [39] in a line: Stability of the compound assessed as conversion of free base to N-oxide at 5 mg/mL after 24 to 168 hr by thin layer chromatographic analysis under hot temperature. Format: physicochemical.
Data set [40] can be described thus: Stability of the compound assessed as conversion of free base to N-oxide at 5 mg/mL after 24 to 168 hr by thin layer chromatographic analysis under UV light and cold temperature. It is filed as physicochemical.
In data set [41] the test system is Phasmarhabditis hermaphrodita. Nature of the data set: Nematicidal activity against juvenile stage of Phasmarhabditis hermaphrodita of assessed as inhibition of mobility after 168 hr. It is filed as functional.
In data set [42] the test system is Phasmarhabditis hermaphrodita. Put plainly: Nematicidal activity against juvenile stage of Phasmarhabditis hermaphrodita of assessed as inhibition of mobility after 20 hr. It is filed as functional, organism-based.

In brackets after ≈: the same amount, converted by molar mass. Activity calls are given as the source filed them. The rule behind the calls is not given here.

For the molecule `C/C=C(/C)C(=O)O[C@H]1CCN2CC=C(COC(=O)[C@](O)([C@H](C)OC)C(C)(C)O)[C@H]12` [LASIOCARPINE], the MIC50 in data set [1] worked out at 1000 µg/mL (≈ 2.43 mM); in data set [2], 1000 µg/mL (≈ 2.43 mM); in data set [3], 500 µg/mL (≈ 1.22 mM); in data set [4] it was 3800 µg/mL (≈ 9.23 mM). For the same molecule, the MIC50 result in data set [5] and in [6] was “inactive” in each case.
On to `CO[C@H](C)[C@](O)(C(=O)OCC1=CCN2CC[C@H](O)[C@@H]12)C(C)C` [HELIOTRINE], for which the MIC50 was 3300 µg/mL (≈ 10.5 mM) in [7]; 1100 µg/mL (≈ 3.51 mM) in data set [1]; 800 µg/mL (≈ 2.55 mM) in data set [2]; 100 µg/mL (≈ 0.319 mM) in [13]; 4800 µg/mL (≈ 15.3 mM) in data set [14]; 300 µg/mL (≈ 0.957 mM) in [3]. Also, the MIC50 in data set [4] stood at 2100 µg/mL (≈ 6.7 mM); in data set [16], 49.8 mg/mL (≈ 159 mM); in data set [5] it was 57.9 mg/mL (≈ 185 mM). The result in data set [8] and in [9] was Active. Further, the Activity in [10] is reported as 58%; in data set [11], 32%; in [12] it was 0%. Moreover, the MIC50 entry in [15] and in data set [6] was “inactive” each time.
In the case of `CO[C@H](C)[C@](O)(C(=O)OCC1=CC[N+]2([O-])CC[C@H](O)[C@@H]12)C(C)C` (stereo partly specified) [HELIOTRINE N-OXIDE], the MIC50 result in data set [7], in data set [1], in data set [13], in [14], in data set [15] and in data set [16] was “inactive” in each case. For the same molecule, the MIC50 result in [6] was “inactive”. For the same molecule, the MIC50 in [2] came out at 1700 µg/mL (≈ 5.16 mM); in data set [3], 900 µg/mL (≈ 2.73 mM); in [4], 77400 µg/mL (≈ 235 mM); in [5], 4.8 mg/mL (≈ 14.6 mM). The outcome in data set [9] was Active. The Activity in [10] was found to be 68%; in data set [11] it was 55%; in [12], 0%.
Regarding `C[C@H]1C(=O)O[C@@H]2CCN3CC=C(COC(=O)[C@](C)(O)[C@]1(C)O)[C@H]23` [MONOCROTALINE], the Repellency was 45% in [17]; 92% in data set [18]; 52% in data set [21]; 52% in [22]; 51% in [23]; 55% in data set [24]. Besides, the Repellency in data set [25] is recorded as 49%; in data set [26] it was 93%. The MIC50 in data set [7] came out at 5800 µg/mL (≈ 17.8 mM); in [1] it was 1700 µg/mL (≈ 5.22 mM); in data set [2], 400 µg/mL (≈ 1.23 mM); in data set [13], 150 µg/mL (≈ 0.461 mM); in [14], 1800 µg/mL (≈ 5.53 mM); in data set [3], 300 µg/mL (≈ 0.922 mM). For the same molecule, the MIC50 in [4] was found to be 2000 µg/mL (≈ 6.15 mM); in data set [16], 25.9 mg/mL (≈ 79.6 mM); in data set [5], 31.5 mg/mL (≈ 96.8 mM). Further, the Activity in [19] is 29%; in data set [20] it was 2%. Moreover, the Stability result is on record as “Unstable” in data set [27]; “Unstable” in data set [28]; “Unstable” in data set [29]; “Stable” in data set [30]; “Unstable” in data set [31]; “Unstable” in data set [32]. The Stability result in data set [33] is “Stable”; in data set [34], “Stable”; in data set [35], “Stable”; in data set [36], “Unstable”; in data set [37], “Unstable”; in data set [38], “Stable”. For the same molecule, the Stability result in data set [39] and in data set [40] was “Stable” throughout. Moreover, the MIC50 entry in data set [41], in data set [42], in data set [15] and in [6] was “inactive” throughout.
Turning to `C/C=C(/C)C(=O)O[C@H]1CC[N+]2([O-])CC=C(COC(=O)[C@](O)(C(C)C)[C@@H](C)OC)[C@H]12` (stereo partly specified) [LASIOCARPINE N-OXIDE], the MIC50 entry in data set [1], in data set [2], in [4], in data set [5] and in [6] was “inactive” in each case. Besides, the MIC50 in [3] came to 84400 µg/mL (≈ 205 mM).
Take `C/C=C1/C[C@@H](C)[C@@](C)(O)C(=O)OCC2=CC[N+]3([O-])CC[C@@H](OC1=O)[C@@H]23` (stereo partly specified) [SENECIONINE N-OXIDE]: the MIC50 result in data set [1], in data set [2] and in [5] was “inactive” each time. For the same molecule, the MIC50 in data set [3] was 2900 µg/mL (≈ 8.25 mM); in [4] it was 3400 µg/mL (≈ 9.68 mM); in [6], 7200 µg/mL (≈ 20.5 mM).

A word on the MIC50: it is an inhibitory concentration at the 50% level, which refers to growth in some studies and to a panel of isolates in others.
